From ChEMBL document CHEMBL1201862, “PubChem BioAssay data set” (2004)
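96-well plates; 48 h exposure; 5 concentrations. Endpoints by linear interpolation between flanking doses. Not reached: highest tested concentration assigned. The concentration for 50% growth inhibition is given as GI50.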 Activity calls are given as the source filed them. No stated cut-off is given here; in the data, active = GI50 up to about 1.1 µM and inactive = higher.

Key:
Test in all cases: growth of human tumour cells (NCI), 48 h
SNB-78 = system: SNB-78
RXF 631 = system: RXF 631
LXFL 529 = system: LXFL 529
DMS-114 = system: DMS-114
KM-20L2 = system: KM-20L2
XF498 = system: XF498
M19-MEL = system: M19-MEL
DLD-1 = system: DLD-1
HOP-18 = system: HOP-18

Measured: GI50

Cc1ccc(NC(=O)CC2Sc3ccccc3NC2=O)c(C)c1 (stereo not given)
inactive: SNB-78 24.7 µM | RXF 631 7.94 µM | LXFL 529 24.7 µM | DMS-114 17.9 µM | KM-20L2 10.9 µM | XF498 18.2 µM | M19-MEL 15.3 µM | DLD-1 8.15 µM | HOP-18 11 µM

CS/C(=N\c1nccs1)NC(=O)c1cccc(Cl)c1
inactive: SNB-78 > 100 µM | RXF 631 16.8 µM | LXFL 529 91 µM | DMS-114 > 100 µM | KM-20L2 > 100 µM | M19-MEL 85.9 µM | DLD-1 > 100 µM | HOP-18 > 100 µM

COc1ccc(O)c2c(=O)ccccc12
inactive: SNB-78 > 100 µM | RXF 631 > 100 µM | LXFL 529 > 100 µM | DMS-114 > 100 µM | XF498 2.69 µM | M19-MEL > 100 µM | DLD-1 > 100 µM

CC1CCCc2c1c1ccc3c(O)cccc3c1oc2=O (stereo not given)
inactive: SNB-78 23.1 µM | LXFL 529 48.8 µM | DMS-114 19.6 µM | KM-20L2 > 100 µM | XF498 55 µM | M19-MEL > 100 µM | DLD-1 > 100 µM | HOP-18 26.6 µM

Cc1ccc(Cl)c(NC(=O)C(=O)C(C(=O)c2ccncc2)C2OC(=O)c3ccccc32)c1 (stereo not given)
inactive: SNB-78 > 100 µM | RXF 631 > 100 µM | LXFL 529 > 100 µM | DMS-114 > 100 µM | XF498 > 100 µM | M19-MEL > 100 µM | DLD-1 > 100 µM | HOP-18 > 100 µM

CC1=CP(=O)(c2ccccc2)C=C(C)C1=C(Cl)Cl (stereo not given)
inactive: SNB-78 2.98 µM | LXFL 529 3.27 µM | DMS-114 10.8 µM | KM-20L2 2.48 µM | XF498 17.4 µM | M19-MEL 12.2 µM | DLD-1 8.17 µM | HOP-18 18.7 µM

COc1cc2c(cc1OC)-c1c(cc(OC)c(OC)c1OC)C2=O
inactive: RXF 631 92.9 µM | LXFL 529 > 100 µM | DMS-114 > 100 µM | KM-20L2 > 100 µM | M19-MEL > 100 µM | DLD-1 > 100 µM | HOP-18 > 100 µM

Cc1cc(C(=O)N2CCN(Cc3ccccc3)CC2)c(C)o1
inactive: SNB-78 > 100 µM | LXFL 529 > 100 µM | DMS-114 > 100 µM | KM-20L2 > 100 µM | XF498 > 100 µM | M19-MEL > 100 µM | DLD-1 > 100 µM | HOP-18 > 100 µM

COc1cc(/C=C\c2ccncc2)cc(OC)c1OC
inactive: SNB-78 > 100 µM | RXF 631 64.7 µM | LXFL 529 67.6 µM | DMS-114 57.3 µM | KM-20L2 65.3 µM | XF498 29.1 µM | DLD-1 > 100 µM | HOP-18 > 100 µM

CCN(CC)CC(C(=O)Nc1c(C)cccc1C)/C(C)=N\NC(=S)NN (stereo not given)
inactive: RXF 631 > 100 µM | LXFL 529 > 100 µM | KM-20L2 > 100 µM | XF498 > 100 µM | M19-MEL > 100 µM | DLD-1 > 100 µM

CCOC(=O)NC(=O)c1cn(C2CCCCC2)c(=O)[nH]c1=O
inactive: SNB-78 65.9 µM | RXF 631 > 100 µM | LXFL 529 39.7 µM | KM-20L2 36.3 µM | XF498 > 100 µM | M19-MEL 76.4 µM | DLD-1 61.8 µM | HOP-18 > 100 µM

N#CCc1nc2c(s1)C(=O)c1ccccc1C2=O
inactive: SNB-78 20 µM | RXF 631 18.2 µM | LXFL 529 15 µM | DMS-114 6.24 µM | KM-20L2 38.4 µM | M19-MEL 2.84 µM | HOP-18 13.8 µM

CC(C)(C)C(=O)C(c1ccc(-c2cscn2)cc1)c1ccc(-c2cscn2)cc1
inactive: SNB-78 18.5 µM | RXF 631 22.7 µM | LXFL 529 39.7 µM | KM-20L2 > 100 µM | XF498 27.3 µM | M19-MEL 65 µM | DLD-1 > 79.6 µM | HOP-18 67.5 µM

CCOC(=O)NC(=O)c1cn(CCCOC(=O)NCCCCCCNC(=O)OCCCn2c(=O)c(C(=O)NC(=O)OCC)cn(C)c2=O)c(=O)n(C)c1=O
inactive: RXF 631 > 100 µM | LXFL 529 > 100 µM | DMS-114 > 100 µM | KM-20L2 > 100 µM | M19-MEL > 100 µM | DLD-1 > 100 µM | HOP-18 52.4 µM

Nc1ncnc2c1ncn2C1(CO)OC(CO)C(O)C1O (stereo not given)
inactive: SNB-78 > 100 µM | RXF 631 > 100 µM | LXFL 529 > 100 µM | DMS-114 > 100 µM | KM-20L2 > 100 µM | XF498 > 100 µM | DLD-1 > 100 µM | HOP-18 > 100 µM

CC1(C)COC(C2(C)C(=O)C=C(c3ccccc3)c3ccccc32)=N1 (stereo not given)
inactive: RXF 631 33 µM | LXFL 529 41.3 µM | DMS-114 38.7 µM | KM-20L2 40.5 µM | M19-MEL 42.8 µM | DLD-1 66.4 µM | HOP-18 > 100 µM

CC(C)(C)C1CCP(=O)(c2ccccc2)CC1 (stereo not given)
inactive: SNB-78 > 100 µM | LXFL 529 > 100 µM | DMS-114 > 100 µM | KM-20L2 > 100 µM | XF498 2.1 µM | M19-MEL > 100 µM | DLD-1 > 100 µM | HOP-18 > 100 µM
